Laboratory results published in patent publication US7589077B2, “Antiviral nucleosides” (priority 2001, dated 2009).
In brackets after ≈: the same amount, converted by molar mass. Like-named read-outs stand apart in the source and are kept apart here.

Experiments:
HSV-2 (MS) = test: CPE inhibition assay HSV-2 (MS) in HFF cells; type: cell-based, Herpes simplex virus type-2; conditions: for EC50: Human alphaherpesvirus 2, HFF
Experimental: (§1) Cytopathic effect (CPE) inhibition assays for HSV-1, HSV-2, HCMV and VZV were performed as follows: Low passage human foreskin fibroblasts (HFF) cells were seeded into 96 well tissue culture plates 24 h prior to use at a cell concentration of 2.5×10^4 cells per mL in 0.1 mL of minimal essential medium (MEM) supplemented with 10% fetal bovine serum (FBS). The cells were then incubated for 24 h at 37° C. in a CO2 incubator. After incubation, the medium was removed and 100 μL of MEM containing 2% FBS was added to all but the first row. In the first row, 125 μL of experimental drug was added in triplicate wells. Medium alone was added to both cell and virus control […]. After incubation, the medium was removed and 100 μl of MEM containing 2% FBS was added to all but the first row. Medium alone was added to both cell and virus control wells. 125 μl of Experimental drug was added in triplicate wells. The drug in the first row of wells was then diluted serially 1:5 throughout the remaining wells by transferring 25 μL using the Cetus Liquid Handling Machine. After dilution of drugs, 100 μL of the appropriate virus concentration was added to each well, excluding the cell control wells which received 100 μL of MEM. For HSY-1 and HSV-2 assays, the virus concentration utilized was 1000 PFU's per well. For CMV and VZV assays, the virus concentration added was 2500 PFU's per well. The plates were then incubated at 37° C. in a CO2 incubator for 3 days for HSV-1 and HSV-2, 10 days for VZV, or 14 days for CMV. After the incubation period, media was aspirated and the cells stained with a 0.1% crystal violet solution for 30 min. The stain was then removed and the plates were allowed to dry 24 h and then read on a Skatron Plate Reader at 620 nm.

HSV-1 (E-377) = test: CPE inhibition assay HSV-1 (E-377) in HFF cells; type: cell-based, Herpes simplex virus type-1; conditions: for EC50: Human alphaherpesvirus 1, HFF
Experimental: as §1

HSV-1 (KOSSB) HSV-TK− = test: microbe, parasite or virus in culture; type: cell-based, Herpes simplex virus type-1; conditions: for HSV-1 (KOSSB) HSV-TK− EC50: Table 4
Experimental: as §1, with “The” for “Cytopathic effect (CPE) inhibition assays for HSV-1, HSV-2, HCMV and VZV were performed as follows: Low passage human foreskin fibroblasts (HFF) cells were seeded into 96 well tissue culture plates 24 h prior to use at a cell concentration of 2.5×10^4 cells per mL in 0.1 mL of minimal essential medium (MEM) supplemented with 10% fetal bovine serum (FBS). The”

VZV (Ellen) = test: CPE inhibition assay VZV (Ellen) in HFF cells; type: cell-based, varicella zoster virus; conditions: for EC50: Human alphaherpesvirus 3, HFF
Experimental: as §1

[1] = Cell cytotoxicity in Vero cells; type: cell-based; conditions: African green monkey, Vero cells
Experimental: (§2) The compounds were assayed for a) their ability to inhibit DHBV DNA replication in duck hepatocytes, b) their ability to inhibit HBV DNA replication in HepG2 2.2.15 cells, c) the cell cytotoxicity in Vero cells, the cell viability in HFF cells, d) the cell proliferation in HFF cells, and e) the T cell proliferation (purified T cells, PHA stimulated). 3-TC was used as a control.

Epstein-Barr Virus (EBV) = test: EBV immunofluorescence assay in DAUDI cells (P3HR-1 strain); type: cell-based; conditions: for EC90: human gammaherpesvirus 4; for EBV EC50: Table 4
Experimental: The immunofluorescence assay, using monoclonal antibodies, for Epstein-Barr Virus (EBV) was performed as follows: DAUDI cells were infected with the P3HR-1 strain of EBV and the test drug was added after adsorption (45 min. at 37° C.) and washing of the cell cultures. These cultures were then incubated for 2 days in complete medium to allow viral gene expression. Following the 48 h incubation period, the number of cells in each sample were counted and smears were made. Monoclonal antibodies to the different early antigen (EA) components and VCA were than added to the cells, incubated and washed. This was followed by the addition of a fluorescein conjugated rabbit anti mouse Ig antibodies. The number of fluorescence positive cells in the smears were counted and the total number of cells in the cultures positive for EA or VCA were then calculated and compared.

HSV-1 (KOS) HSV-TK+ = HSV-1 (KOS) HSV-TK+ antiviral assay; type: cell-based, Herpes simplex virus type-1; conditions: Table 4
Experimental: as §1

[2] = system: duck hepatitis B virus (DHBV); test: DHBV DNA replication in primary duck hepatocytes (dot blot hybridization); type: cell-based; conditions: for inhibition at 10 µg/mL: read-out: % Inh. of DHBV DNA in duck hepatocytes @ 10 μg/ml
Experimental: A series of compounds were synthesized and assayed for activity against duck hepatitis B virus (DHBV). […] Test compounds were added to the hepatocyte cultures on day 2 and maintained in culture with media changed every second day until day 12. Cell were harvested at day 14 and lysed with buffer containing 1% SDS. DNA was isolated from the lysate and dot blot hybridization was performed using a DHBV (32P) DNA probe. […]
as §2

human HBV = test: HBV DNA replication in HepG2 2.2.15 cells; type: cell-based, hepatitis B virus; conditions: for EC50: Table 3a, read-out: % Inhibition of human HBV DNA replication in HepG2 2.2.15 cells EC50
Experimental: The compounds were assayed for a) their ability to inhibit DHBV DNA replication in duck hepatocytes, b) their ability to inhibit HBV DNA replication in HepG2 2.2.15 cells, c) the cell cytotoxicity in Vero cells, the cell viability in HFF cells, d) the cell proliferation in HFF cells, and e) the T cell proliferation (purified T cells, PHA stimulated). 3-TC was used as a control. Additional compounds described below in the Preparative Examples section were also tested, and the results are shown in Tables 2-4 below. The reference numbers for the compounds are found in the Preparative Examples.

HCMV (AD169) = test: CPE inhibition assay HCMV (AD169) in HFF cells; type: cell-based, human cytomegalovirus; conditions: for EC50: Human betaherpesvirus 5, AD169, HFF
Experimental: as §1

[3] = Duck hepatitis B virus, Hepatocyte
[4] = Duck hepatitis B virus, Hepatocyte, Table 2, value in brackets, read-out: DHBV DNA in duck hepatocytes [EC50, μg/ml]

Nc1nc2c(ncn2COCCO)c(=O)[nH]1 [Acyclovir, acyclovir, reference compound]
EC50 (HSV-2 (MS); Table 3b): 6.16 µM
EC50 (HSV-2 (MS); Table 4): 0.6 µg/mL
EC50 (HSV-1 (E-377); Table 3b): 3.08 µM
EC50 (HSV-1 (E-377); Table 4): 0.2 µg/mL
EC50 (HSV-1 (KOSSB) HSV-TK−; Human alphaherpesvirus 1, read-out: HSV-1 (KOSSB) HSV-TK− EC50, μg/ml): > 100 µg/mL
EC50 (VZV (Ellen); Table 2): 0.6 µg/mL
EC50 (VZV (Ellen); Table 3a): 0.03 µg/mL
EC50 (VZV (Ellen); Table 3b): 3.96 µM
EC50 (VZV (Ellen); Table 4): 0.08 µg/mL
CC50 ([1]; Table 3b): > 400 µM
EBV EC90 (Epstein-Barr Virus (EBV); Table 4, in parentheses): > 50 µg/mL
EBV EC90 (Epstein-Barr Virus (EBV); Table 5, in parentheses): (EC90 = >50) μg/ml
EC50 (Epstein-Barr Virus (EBV); human gammaherpesvirus 4, Table 3a, read-out: EBV EC50): 1 µg/mL (≈ 4.44 µM)
EC50 (Epstein-Barr Virus (EBV); human gammaherpesvirus 4, Table 4, read-out: EBV EC50): 1.4 µg/mL (≈ 6.22 µM)
EC50 (Epstein-Barr Virus (EBV); human gammaherpesvirus 4, Table 5, read-out: EBV EC50): 1 µg/mL (≈ 4.44 µM)
EC50 (Epstein-Barr Virus (EBV); human gammaherpesvirus 4, running text, read-out: anti EBV activity EC50): 1 µg/mL (≈ 4.44 µM)
EC90 (Epstein-Barr Virus (EBV); Table 3a, in parentheses, read-out: EBV EC90): > 50 µg/mL
EC90 (Epstein-Barr Virus (EBV); read-out: anti EBV activity EC90): > 50 µg/mL
EC50 (HSV-1 (KOS) HSV-TK+; Human alphaherpesvirus 1): < 1 µg/mL

C=Cc1cn(COC(CO)CO)c(=O)[nH]c1=O [Compound 9a, 1-[(2-Hydroxy-1-(hydroxymethyl)ethoxy)methyl]-5-vinyluracil]
CC50 ([1]; Table 2): > 100 µg/mL
inhibition at 10 µg/mL [2, 3]: 82%
EC50 [2, 4]: 0.3 to 1 µg/mL

O=c1[nH]c(=O)n(CCC(CO)CO)cc1I [Compound 19, 1-[4-Hydroxy-3-(hydroxymethyl)-1-butyl]-5-iodouracil]
CC50 ([1]; Table 2): > 200 µg/mL
inhibition at 10 µg/mL [2, 3]: 65.2%
inhibition at 0.01 µg/mL (human HBV; Hepatitis B virus, HepG2 2.2.15, read-out: % Inh. of human HBV DNA replication in HepG2 2.2.15 cells @ 0.01 μg/ml (right)): 18.1%
inhibition at 0.1 µg/mL (human HBV; Hepatitis B virus, HepG2 2.2.15, read-out: % Inh. of human HBV DNA replication in HepG2 2.2.15 cells @ 0.1 μg/ml (left)): 69.1%

C=Cc1cn(CCC(CO)CO)c(=O)[nH]c1=O [Compound 20, 1-[4-Hydroxy-3-(hydroxymethyl)-1-butyl]-5-vinyluracil]
CC50 ([1]; Table 2): > 100 µg/mL
inhibition at 10 µg/mL [2, 3]: 80%
EC50 [2, 4]: 1 to 3 µg/mL

Nc1nc(O)c2ncn(COC(CO)CO)c2n1 [Gancyclovir, ganciclovir, reference compound]
EC50 (VZV (Ellen); Table 4): 0.1 µg/mL
EC50 (HCMV (AD169); Table 2): 0.06 µg/mL (≈ 0.235 µM)
EC50 (HCMV (AD169); Table 4, read-out: HCMV (AD-169) EC50): 0.1 µg/mL (≈ 0.392 µM)

[N-]=[N+]=NC1C(Cl)C(=O)NC(=O)N1[C@H]1C[C@H](O)[C@@H](CO)O1 (stereo partly shown) [RB-10, 5-Chloro-6-azido-5,6-dihydro-2′-deoxyuridine]
EC50 (HSV-2 (MS); Table 3b): 1.6 µM
EC50 (HSV-1 (E-377); Table 3b): 0.33 µM
EC50 (VZV (Ellen); Table 3b): 9.8 µM
CC50 ([1]; Table 3b): > 327 µM

(5R,6R) 5-fluoro-O^6-5′-cyclo-5,6-dihydro-2′-deoxythymidine [Compound R-25]
HSV-2 (MS) EC50 (HSV-2 (MS); Table 4): >100 µg/mL
HSV-1 (E-377) EC50, μg/ml (HSV-1 (E-377); Table 4): >100 μg/ml
HSV-1 (KOSSB) HSV-TK− EC50 (HSV-1 (KOSSB) HSV-TK−): >50 µg/mL
VZV (Ellen) EC50 (VZV (Ellen); Table 4): >100 µg/mL
EBV EC50 (Epstein-Barr Virus (EBV)): 0.6 to 3.0 µg/mL
HCMV (AD-169) EC50 (HCMV (AD169); Table 4): >100 µg/mL
HSV-1 (KOS) HSV-TK+ EC50 (HSV-1 (KOS) HSV-TK+): >25 µg/mL

(5R,6S) 5-fluoro-O^6-5′-cyclo-5,6-dihydro-2′-deoxythymidine [Compound R-24]
HSV-2 (MS) EC50 (HSV-2 (MS); Table 4): >100 µg/mL
HSV-1 (E-377) EC50, μg/ml (HSV-1 (E-377); Table 4): >100 μg/ml
HSV-1 (KOSSB) HSV-TK− EC50 (HSV-1 (KOSSB) HSV-TK−): >50 µg/mL
VZV (Ellen) EC50 (VZV (Ellen); Table 4): >100 µg/mL
EBV EC50 (Epstein-Barr Virus (EBV)): 0.6 to 2.8 µg/mL
EBV EC90 (Epstein-Barr Virus (EBV); Table 4, in parentheses): (EC90 = 3.8) μg/ml
HCMV (AD-169) EC50 (HCMV (AD169); Table 4): >100 µg/mL
HSV-1 (KOS) HSV-TK+ EC50 (HSV-1 (KOS) HSV-TK+): >25 µg/mL

(5S,6R) 5-fluoro-O^6-5′-cyclo-5,6-dihydro-2′-deoxythymidine [Compound R-23]
HSV-2 (MS) EC50 (HSV-2 (MS); Table 4): >100 µg/mL
HSV-1 (E-377) EC50, μg/ml (HSV-1 (E-377); Table 4): >100 μg/ml
HSV-1 (KOSSB) HSV-TK− EC50 (HSV-1 (KOSSB) HSV-TK−): >50 µg/mL
VZV (Ellen) EC50 (VZV (Ellen); Table 4): >100 µg/mL
EBV EC50 (Epstein-Barr Virus (EBV)): 0.1 to 1.4 µg/mL
EBV EC90 (Epstein-Barr Virus (EBV); Table 4, in parentheses): (EC90 = 7.3) μg/ml
HCMV (AD-169) EC50 (HCMV (AD169); Table 4): >100 µg/mL
HSV-1 (KOS) HSV-TK+ EC50 (HSV-1 (KOS) HSV-TK+): >25 µg/mL

(5S,6S)5-Bromo-O^6-5′-cyclo-5,6-dihydro-5-ethyl-2′-deoxyuridine [Compound R-9]
HSV-2 (MS) EC50 (HSV-2 (MS); Table 4): 10 µg/mL
HSV-1 (E-377) EC50, μg/ml (HSV-1 (E-377); Table 4): 4.0 μg/ml
HSV-1 (KOSSB) HSV-TK− EC50 (HSV-1 (KOSSB) HSV-TK−): 10 to 25 µg/mL
HSV-1 (KOS) HSV-TK+ EC50 (HSV-1 (KOS) HSV-TK+): 1 to 5 µg/mL

[(+)(6R)]-5-bromo-6-ethoxy-5,6dihydro-3′-fluoro-2′,3′-dideoxyuridine [RB-5]
% Inhibition of DHBV DNA in duck hepatocytes EC50 μM ([2]; Table 3a): not active
EC50 (human HBV): 5 µM

[(−)-(6S)]-5-bromo-6-ethoxy-5,6-dihydro-3′-fluoro-2′,3′-dideoxyuridine [RB-4]
EC50 ([2]; Table 3a, read-out: % Inhibition of DHBV DNA in duck hepatocytes EC50): > 10 µM
EC50 (human HBV): 3 µM
